In one assay the target is His-AKT (Full Length) (Homo sapiens (Human), UniProt P31749). Put plainly: AKT enzyme assay. In kind it is biochemical. The conditions noted are these: read-out: IC50 AKT.
The target in the next assay is P70S6K (T412E mutant) (Homo sapiens (Human), UniProt P23443, T412E). Nature of the assay: P70S6K enzyme assay. In kind it is biochemical. The conditions noted are these: read-out: IC50 p70S6K. The method, boiled down: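 Phosphorylated product and substrate peptide separated by microfluidic capillary electrophoresis (Caliper LabChip 3000), product peaks resolving before substrate.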

For orientation: IC50 means the concentration that inhibits the measured activity by half.

SMILES strings stand for the structures.

Chain of His-AKT (Full Length) (P31749 whole entry): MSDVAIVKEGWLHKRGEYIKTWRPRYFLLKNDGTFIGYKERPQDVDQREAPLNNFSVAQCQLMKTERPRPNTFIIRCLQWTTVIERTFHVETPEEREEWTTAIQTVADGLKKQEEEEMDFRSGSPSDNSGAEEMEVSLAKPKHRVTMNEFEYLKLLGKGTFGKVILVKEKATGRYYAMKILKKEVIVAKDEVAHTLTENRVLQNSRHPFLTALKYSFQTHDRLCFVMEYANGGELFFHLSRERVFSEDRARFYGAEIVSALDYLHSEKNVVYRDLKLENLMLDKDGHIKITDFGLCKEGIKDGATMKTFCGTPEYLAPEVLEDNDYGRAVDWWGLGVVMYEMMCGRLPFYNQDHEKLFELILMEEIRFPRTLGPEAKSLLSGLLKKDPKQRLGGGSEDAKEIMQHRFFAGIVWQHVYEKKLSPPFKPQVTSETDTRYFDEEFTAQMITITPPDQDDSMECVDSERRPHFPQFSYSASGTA
Chain of P70S6K (T412E mutant) (P23443 whole entry T412E): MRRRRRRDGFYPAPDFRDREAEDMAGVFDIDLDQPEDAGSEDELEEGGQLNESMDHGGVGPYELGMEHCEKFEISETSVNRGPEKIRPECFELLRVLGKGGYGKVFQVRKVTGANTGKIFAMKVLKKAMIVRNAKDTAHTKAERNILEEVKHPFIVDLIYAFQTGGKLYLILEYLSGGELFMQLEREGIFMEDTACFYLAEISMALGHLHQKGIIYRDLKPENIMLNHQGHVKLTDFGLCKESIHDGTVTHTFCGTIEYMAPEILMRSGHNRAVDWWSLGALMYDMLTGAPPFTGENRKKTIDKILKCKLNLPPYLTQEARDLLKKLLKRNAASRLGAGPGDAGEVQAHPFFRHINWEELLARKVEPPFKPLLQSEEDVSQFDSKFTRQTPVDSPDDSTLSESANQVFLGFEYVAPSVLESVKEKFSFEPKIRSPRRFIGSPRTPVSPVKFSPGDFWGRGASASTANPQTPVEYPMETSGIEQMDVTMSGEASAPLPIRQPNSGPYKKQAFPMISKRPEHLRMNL

`FC(F)(F)c1cccc(-c2c[nH]c(C3CCN(c4ncncc4Br)CC3)n2)c1` [Compound 4, 5-Bromo-4-{4-[4-(3-trifluoromethyl-phenyl)-1H-imidazol-2-yl]-piperidin-1-yl}-pyrimidine]: the values for the IC50 on His-AKT (Full Length) and at P70S6K (T412E mutant) were 6100 nM and 31.9 nM, respectively.
With `Nc1ncnc(N2CCC(c3nc(-c4ccc(F)c(C(F)(F)F)c4)cn3CCN3CCCC3)CC2)c1Cl` [Compound 209], the IC50 at His-AKT (Full Length) worked out at 2.2 nM; at P70S6K (T412E mutant) it was 3.1 nM.
For `CN(C)CCn1cc(-c2ccc(F)c(C(F)(F)F)c2)nc1C1CCN(c2ncnc(N)c2-c2ccc(C(C)(C)O)cc2)CC1` [Compound 87, 2-(4-(4-Amino-6-(4-(1-(2-(dimethylamino)ethyl)-4-(4-fluoro-3-(trifluoromethyl)phenyl)-1H-imidazol-2-yl)piperidin-1-yl)pyrimidin-5-yl)phenyl)propan-2-ol], in that order: 190 nM and 9.3 nM.
The corresponding values for `Nc1ncnc(N2CCC(c3nc(-c4ccnc(C(F)(F)F)c4)cn3CCN3CCC3)CC2)c1Cl` [Compound 144, 6-(4-(1-(2-(azetidin-1-yl)ethyl)-4-(2-(trifluoromethyl)pyridin-4-yl)-1H-imidazol-2-yl)piperidin-1-yl)-5-chloropyrimidin-4-amine] are 2.5 nM and 1.1 nM.
The corresponding values for `NC(=O)c1c(N)ncnc1N1CCC(c2nc(-c3ccc(F)c(C(F)(F)F)c3)cn2C2CCNCC2)CC1` [Compound 154, 4-amino-6-(4-(4-(4-fluoro-3-(trifluoromethyl)phenyl)-1-(piperidin-4-yl)-1H-imidazol-2-yl)piperidin-1-yl)pyrimidine-5-carboxamide] are 480 nM and 3 nM.
Regarding `CN(C)CCn1cc(-c2ccc(F)c(C(F)(F)F)c2)nc1C1CCN(c2ncnc(N)c2-c2ccc(C(=O)O)cc2)CC1` [Compound 89], the IC50 is 33 nM at His-AKT (Full Length) and 7.3 nM on P70S6K (T412E mutant).
The corresponding values for `CCO/C=C/c1c(N)ncnc1N1CCC(c2nc(-c3ccc(F)c(C(F)(F)F)c3)cn2CCN(C)C)CC1` [Compound 86, (E)-6-(4-(1-(2-(Dimethylamino)ethyl)-4-(4-fluoro-3-(trifluoromethyl)phenyl)-1H-imidazol-2-yl)piperidin-1-yl)-5-(2-ethoxyvinyl)pyrimidin-4-amine] are 4 nM and 1.9 nM.
The corresponding values for `Cc1ncc(-c2c(N)ncnc2N2CCC(c3nc(-c4ccc(F)c(C(F)(F)F)c4)cn3C)CC2)s1` [Compound 55, 6-{4-[4-(4-Fluoro-3-trifluoromethyl-phenyl)-1-methyl-1H-imidazol-2-yl]-piperidin-1-yl}-5-(2-methyl-thiazol-5-yl)-pyrimidin-4-ylamine] are 850 nM and 2.1 nM.
With `Cc1cc(-c2cn(CCN3CCC3)c(C3CCN(c4ncnc(N)c4OC(C)C)CC3)n2)ccc1F` [Compound 178, 6-(4-(1-(2-(azetidin-1-yl)ethyl)-4-(4-fluoro-3-methylphenyl)-1H-imidazol-2-yl)piperidin-1-yl)-5-isopropoxypyrimidin-4-amine], the IC50 on His-AKT (Full Length) worked out at 2.7 nM; at P70S6K (T412E mutant) it was 3.9 nM.
Regarding `Nc1ncnc(N2CCC(c3nc(-c4ccc(C(F)(F)F)c(F)c4)cn3CCN3CCCC3)CC2)c1C1CCC1` [Compound 254], the IC50 stood at 9.1 nM at His-AKT (Full Length) and 8.1 nM on P70S6K (T412E mutant).
The corresponding values for `CNc1ncnc(N2CCC(c3nc(-c4ccc(F)c(C)c4)cn3CC3CNC3)CC2)c1Cl` [Compound 193, (6-{4-[1-Azetidin-3-ylmethyl-4-(4-fluoro-3-methyl-phenyl)-1H-imidazol-2-yl]-piperidin-1-yl}-5-chloro-pyrimidin-4-yl)-methyl-amine] are 5700 nM and 1300 nM.
For `Nc1ncnc(N2CCC(c3nc(-c4ccc(F)c(C(F)(F)F)c4)cn3CCN3CCC3)CC2)c1C=O` [Compound 285], the IC50 at His-AKT (Full Length) came to 1.4 nM; at P70S6K (T412E mutant), 1 nM.
For `CC(C)Oc1c(N)ncnc1N1CCC(c2nc(-c3ccnc(C(F)(F)F)c3)cn2CCN2CCC2)CC1` [Compound 117, 6-(4-(1-(2-(azetidin-1-yl)ethyl)-4-(2-(trifluoromethyl)pyridin-4-yl)-1H-imidazol-2-yl)piperidin-1-yl)-5-isopropoxypyrimidin-4-amine], in that order: 9.1 nM and 4.9 nM.
For `Nc1ncnc(N2CCC(c3nc(-c4cccc(F)c4)cn3CCN3CCCC3)CC2)c1C1CCC1` [Compound 257], in that order: 20 nM and 4 nM.
As to `CNCCn1cc(-c2ccnc(C(F)(F)F)c2)nc1C1CCN(c2ncnc(N)c2Cl)CC1` [Compound 172, 5-chloro-6-(4-(1-(2-(methylamino)ethyl)-4-(2-(trifluoromethyl)pyridin-4-yl)-1H-imidazol-2-yl)piperidin-1-yl)pyrimidin-4-amine], the IC50 at His-AKT (Full Length) is 1.4 nM; at P70S6K (T412E mutant), 2 nM.
For `CNCCn1cc(-c2ccc(F)c(C)c2)nc1C1CCN(c2ncnc(N)c2C(N)=O)CC1` [Compound 397, 4-Amino-6-{4-[4-(4-fluoro-3-methyl-phenyl)-1-(2-methylamino-ethyl)-1H-imidazol-2-yl]-piperidin-1-yl}-pyrimidine-5-carboxylic acid amide], in that order: 16 nM and 2.5 nM.
On to `Cc1cc(-c2cn(CCN(C)C)c(C3CCN(c4ncnc(N)c4C(N)=O)CC3)n2)ccc1F` [Compound 348], for which the IC50 at His-AKT (Full Length) stood at 32 nM; at P70S6K (T412E mutant) it was 4 nM.
For `NC(=O)c1c(N)ncnc1N1CCC(c2nc(-c3ccc(F)c(C(F)(F)F)c3)cn2CCN2CCCC2)CC1` [Compound 331], in that order: 15 nM and 4.6 nM.
`NC(=O)c1c(N)ncnc1N1CCC(c2nc(-c3ccc(F)c(C(F)(F)F)c3)cn2CCNC2CCCC2)CC1` [Compound 387, 4-Amino-6-{4-[1-(2-cyclopentylamino-ethyl)-4-(4-fluoro-3-trifluoromethyl-phenyl)-1H-imidazol-2-yl]-piperidin-1-yl}-pyrimidine-5-carboxylic acid amide]: the IC50 is 8.4 nM on His-AKT (Full Length) and 1.4 nM on P70S6K (T412E mutant).
Turning to `NC(=O)c1c(N)ncnc1N1CCC(c2nc(-c3ccc(F)c(Cl)c3)cn2CCN2CCC2)CC1` [Compound 79, 4-Amino-6-{4-[1-(2-azetidin-1-yl-ethyl)-4-(3-chloro-4-fluoro-phenyl)-1H-imidazol-2-yl]-piperidin-1-yl}-pyrimidine-5-carboxylic acid amide], the IC50 was determined as 7.5 nM on His-AKT (Full Length) and 0.9 nM on P70S6K (T412E mutant).
The corresponding values for `Nc1ncnc(N2CCC(c3nc(-c4cccc(F)c4)cn3CCN3CCCC3)CC2)c1Cl` [Compound 236] are 8.1 nM and 0.5 nM.
The corresponding values for `CCc1c(N)ncnc1N1CCC(c2nc(-c3ccc(F)cc3)cn2CCN2CCOCC2)CC1` [Compound 195, 5-Ethyl-6-{4-[4-(4-fluoro-phenyl)-1-(2-morpholin-4-yl-ethyl)-1H-imidazol-2-yl]-piperidin-1-yl}-pyrimidin-4-ylamine] are > 1000 nM and 16 nM.
Turning to `Cc1cc(-c2cn(CCN3CCC3)c(C3CCN(c4ncnc(N)c4C#N)CC3)n2)ccc1F` [Compound 122, 4-amino-6-(4-(1-(2-(azetidin-1-yl)ethyl)-4-(4-fluoro-3-methylphenyl)-1H-imidazol-2-yl)piperidin-1-yl)pyrimidine-5-carbonitrile], the IC50 at His-AKT (Full Length) worked out at 2 nM; on P70S6K (T412E mutant) it was 0.7 nM.

Values taken from US9145392B2, “Imidazole amines as modulators of kinase activity” (Merck Patent GmbH, priority 2011, dated 2015).
